This assay addresses T1, epithelial sodium channel (ENaC) (Homo sapiens, UniProt P37088+P51168+P51170).
T1 construct: Nasal Polyps were surgically obtained from a CF patient; endogenous in cells; host or cells: primary cystic fibrosis human nasal epithelial (CFHNE) cells from nasal polyps of a CF patient, grown at air-liquid interface
T1 sequence (P37088 1-669): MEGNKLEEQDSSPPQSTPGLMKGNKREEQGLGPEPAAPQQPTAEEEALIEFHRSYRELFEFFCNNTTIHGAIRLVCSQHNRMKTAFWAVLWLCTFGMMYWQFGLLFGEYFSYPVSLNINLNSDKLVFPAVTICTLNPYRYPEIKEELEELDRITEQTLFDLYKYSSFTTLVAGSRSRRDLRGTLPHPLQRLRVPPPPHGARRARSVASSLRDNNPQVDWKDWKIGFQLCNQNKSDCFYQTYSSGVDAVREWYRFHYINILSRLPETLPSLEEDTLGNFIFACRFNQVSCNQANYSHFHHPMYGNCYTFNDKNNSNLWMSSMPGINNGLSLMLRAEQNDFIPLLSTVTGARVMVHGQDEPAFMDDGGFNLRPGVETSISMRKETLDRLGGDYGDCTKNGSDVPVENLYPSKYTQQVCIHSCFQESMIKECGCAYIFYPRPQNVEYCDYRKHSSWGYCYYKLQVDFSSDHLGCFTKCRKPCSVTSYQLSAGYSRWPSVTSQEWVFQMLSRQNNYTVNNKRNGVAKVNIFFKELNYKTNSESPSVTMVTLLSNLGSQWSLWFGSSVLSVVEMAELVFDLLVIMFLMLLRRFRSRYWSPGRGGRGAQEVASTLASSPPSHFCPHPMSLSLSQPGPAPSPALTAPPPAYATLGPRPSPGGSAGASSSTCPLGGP
T1 sequence (P51168 1-640): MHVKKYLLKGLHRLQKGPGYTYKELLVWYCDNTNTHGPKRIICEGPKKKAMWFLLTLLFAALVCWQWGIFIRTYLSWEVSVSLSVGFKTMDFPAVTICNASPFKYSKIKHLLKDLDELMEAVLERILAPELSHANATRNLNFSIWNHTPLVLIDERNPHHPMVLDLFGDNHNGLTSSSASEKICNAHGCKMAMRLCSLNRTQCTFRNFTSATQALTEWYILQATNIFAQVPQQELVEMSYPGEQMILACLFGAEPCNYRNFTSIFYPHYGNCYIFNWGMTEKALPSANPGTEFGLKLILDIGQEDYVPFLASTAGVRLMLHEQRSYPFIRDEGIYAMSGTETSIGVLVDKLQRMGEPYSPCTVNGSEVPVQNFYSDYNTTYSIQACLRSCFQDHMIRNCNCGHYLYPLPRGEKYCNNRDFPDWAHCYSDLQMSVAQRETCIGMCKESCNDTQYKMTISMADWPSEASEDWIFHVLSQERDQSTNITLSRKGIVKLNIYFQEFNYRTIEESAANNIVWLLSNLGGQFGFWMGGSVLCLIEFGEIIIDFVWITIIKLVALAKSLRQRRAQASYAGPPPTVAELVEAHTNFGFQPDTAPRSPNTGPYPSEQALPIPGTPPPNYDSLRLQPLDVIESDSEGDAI
T1 sequence (P51170 1-649): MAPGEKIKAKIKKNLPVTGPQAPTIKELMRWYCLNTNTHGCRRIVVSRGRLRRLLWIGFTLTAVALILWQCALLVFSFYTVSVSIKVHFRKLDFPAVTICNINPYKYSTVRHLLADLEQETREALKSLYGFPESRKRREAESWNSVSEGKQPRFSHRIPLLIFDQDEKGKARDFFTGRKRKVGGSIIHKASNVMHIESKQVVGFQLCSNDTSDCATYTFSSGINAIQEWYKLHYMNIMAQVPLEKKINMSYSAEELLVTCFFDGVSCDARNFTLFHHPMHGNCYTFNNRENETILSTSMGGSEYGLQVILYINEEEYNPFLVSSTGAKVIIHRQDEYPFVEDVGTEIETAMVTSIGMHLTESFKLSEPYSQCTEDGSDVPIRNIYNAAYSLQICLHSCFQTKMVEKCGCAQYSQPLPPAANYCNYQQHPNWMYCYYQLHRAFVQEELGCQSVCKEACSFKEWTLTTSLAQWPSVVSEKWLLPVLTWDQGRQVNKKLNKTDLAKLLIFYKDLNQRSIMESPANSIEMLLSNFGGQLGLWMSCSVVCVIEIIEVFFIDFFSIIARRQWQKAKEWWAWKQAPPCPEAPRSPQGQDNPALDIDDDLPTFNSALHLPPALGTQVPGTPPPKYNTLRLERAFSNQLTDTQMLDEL
Kind of assay: Cystic fibrosis human nasal epithelial (CFHNE) cell Ussing chamber assay, short-circuit current (Isc). In kind it is cell-based. On the procedure:
Sodium uptake inhibiting and enhancing inositol polyphosphate compounds are determined by the cystic fibrosis human nasal epithelial (CFHNE) cell assay, as described in detail in Examples 1 and 2, i.e., by mounting monolayers of human CF nasal epithelial cells in Ussing chambers, and then monitoring short-circuit current (Isc) and resistance after contact with a test inositol polyphosphate compound.
Elevated basal Isc measured in monolayer cultures in Ussing Chambers is a prominent characteristic of cultures of CF human nasal airway epithelia that distinguishes it from normal tissue. Although basal Isc is largely driven by sodium channel activity (ENaC) it has been closely associated with both CFTR and Ca^2+ activated Cl^− channels. (Devor and Pilewski, 1999; Inglis et al., 1999; Mall et al., 1999; Ramminger et al., 1999; Wang and Chan, 2000).
CF Human Nasal Epithelial (CFHNE) Cell Isolation and Proliferation: Nasal Polyps were surgically obtained from a CF patient at Children's Hospital (Seattle, Wash.), transported, on ice in a sterile container containing a 1:1 mixture of Dulbecco's modification of minimum essential medium Eagle and Ham's F-12 nutrient medium (DMEM/F-12)(Irvine Scientific, Santa Ana, Calif.) supplemented with 100 U/ml penicillin, 0.1 mg/ml streptomycin, 10 mM HEPES, and 2 mM L-glutamine. The tissue samples were aseptically removed from the transport medium and washed (repeated 5×) by suspending in 40 ml of Joklik's modification of minimum essential medium Eagle (JMEM) at 4° C., and centrifuging at 500 RPM. The supernatant was aspirated and discarded. The tissue was then transferred to JMEM containing 200 U/ml penicillin, 0.2 mg/ml streptomycin, 0.1 mg/ml gentamycin sulfate (Clonetics, San Diego, Calif.), and 0.1 μg/ml amphotericin-B (Clonetics), and 0.1% Protease (Sigma), washed an additional 2×, suspended in 15 ml in a 10 cm tissue culture dish, and incubated at 4° C. for 24 hours. The tissue samples were then gently triturated, the connective tissue aseptically removed, and the remaining cell suspension centrifuged at 1000 RPM for 5 min. The supernatant was aspirated and the pellet was resuspended in 10 ml JMEM with 0.025% trypsin-EDTA and allowed to incubate for 5 min. After 5 min., 10% Fetal Bovine Serum (FBS) was added to deactivate the trypsin, and the cell suspension was centrifuged at 1000 RPM. The supernatant was aspirated and the cell pellet was resuspended in a proliferation media consisting of Keratinocyte-Serurm Free Medium (KSFM)(Gibco-BRL, Grand Island, N.Y.) containing 5 ng/ml EGF (Gibco), 50 μg/ml BPE (Gibco), 100 U/ml penicillin, 0.1 mg/ml streptomycin, and 2 mM L-glutamine. The cell suspension was transferred to 2, 10 cm tissue culture dishes coated with 1 μg/cm^2 Vitrogen (Becton-Dickinson, Bedford, Mass.), incubated at 37° C. in a humidified atmosphere of 5% CO2 and 95% air. The cells were allowed to grow for 6 days (70-80% confluence) with the media being replaced with fresh media every other day. The cells were then trypsinized using 0.025% trypsin-EDTA for 5 min. The cell suspension was collected, the trypsin deactivated with 10% FBS, and centrifuged at 1000 rpm for 5 min. The cells were then counted using a hemocytometer. There was a typical yield of 3×10^6 cells per dish. The supernatant was aspirated and the cells were resuspended in KSFM and plated on 1 μg/cm^2 Vitrogen at a density of 5×10^3 cells/cm^2.
CFHNE Cell Ussing Chamber Preparation: The CFHNE cells were prepared for Ussing Chamber studies using Snapwell permeable supports (0.4 μm pore size) (Corning Costar, Cambridge, Mass.) coated with 1 μg/cm^2 Vitrogen. Cells were plated at 10^5 cells/cm^2 in KSFM. […]

Entries after “also recorded” stand apart in the source; their conditions may differ. Where two headings read alike, the source gives them in different places.

Results on 1 molecule are retold here after US20050020542A1, “Method of modulating sodium ion absorption in epithelial cells” (priority 2001, published 2005).

As for `CCCCCCCCOC1C(OC(=O)CCC)C(OP(=O)(OCOC(=O)CC)OCOC(=O)CC)C(OP(=O)(OCOC(=O)CC)OCOC(=O)CC)C(OP(=O)(OCOC(=O)CC)OCOC(=O)CC)C1OP(=O)(OCOC(=O)CC)OCOC(=O)CC` (stereo not drawn) [INO-E2, 2-O-butyryl-1-O-octyl-myo-inositol 3,4,5,6-tetrakisphosphate octakis (propionoxymethyl) ester], the “acute effect on Isc” value (2.5 μM, acute) is “acute inhibitory effect on Isc”. Also, the “persistence of acute Isc effect after 24 hrs” value (2.5 μM, single addition, after 24 hrs) is “dissipated”. Also, the “inhibition of Isc 48 hours after exposure (reversibility)” value (5 μM for 2 hours, tested 48 hours later) is “negligible inhibition of Isc”. Also, the “effect of repeated exposure on basal Isc” value (1-2.5 μM repeatedly over 96 hours (every 24 hrs for 4 days), FIG. 3) is “corrective changes in basal Isc; also recorded: cumulative beneficial effect; also recorded: reverses the pathologically elevated basal Isc”. Further, the “decrease in potency after 24 hr preincubation versus acute addition” value (24 hr preincubation EC50 vs acute EC50) was 50-80%. For the same molecule, the “inhibition of spontaneous Isc in Cl- free buffer” value (Cl- free buffer, FIG. 1A) is “not reduced”. The EC50 by setting is: (acute addition, data not shown, read-out: EC50 on Isc following acute addition of compound) 1 to 2 µM; (applied apically 2 hrs, washed, tested 24 hrs later, CFHNE monolayers, read-out: EC50 of prolonged effect on basal amiloride-inhibitable Isc) 5 to 10 µM. In addition, the “acute effect on spontaneous amiloride-inhibitable Isc” value (acute addition, reduced chloride and chloride free buffers, FIG. 1A) is “inhibits spontaneous amiloride-inhibitable Isc in a dose-dependent fashion”.
